From patent US20180099931A1 (AbbVie S.à.r.l., priority 2016, published 2018) come the findings set out here.

pEC50: −log10 of the molar value. Where two headings read alike, the source gives them in different places.

The test has as its target T1, F508delCFTR (Homo sapiens, UniProt P13569, DEL508-508).
T1 construct: expressed in transfected cells; host or cells: CFBE41o- human lung-derived epithelial cells (CFBE4lo-F508delCFTR-HRP), doxycycline-inducible
The test can be described thus: Cell Surface Expression-Horse Radish Peroxidase (CSE-HRP) Assay.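 For Maximum % activity (with co-corrector): co-corrector and positive control are both the same reference corrector at 2 µM.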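 For Maximum % activity (without co-corrector): percent of the 2 µM on-plate positive control corrector response above DMSO.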 In kind it is cell-based. Particulars: for Emax / Maximum % activity (with co-corrector): maximum at any tested concentration, normalized to on-plate positive control; for Emax: read-out: Maximum % activity (without co-corrector).

Setting [1] is: test compound without co-corrector.
Setting [2] is: test compound without co-corrector, read-out: EC50 (without co-corrector).
Where [3] appears, read: with co-corrector (2 μM of 3-[(2R,4R)-4-({[1-(2,2-difluoro-1,3-benzodioxol-5-yl)cyclopropyl]carbonyl}amino)-7-methoxy-3,4-dihydro-2H-chromen-2-yl]benzoic acid), read-out: EC50 (with co-corrector).
Setting [4] is: CSE-HRP, test compound without co-corrector, read-out: EC50 (without co-corrector).
Setting [5] is: CSE-HRP, with co-corrector (2 μM of 3-[(2R,4R)-4-({[1-(2,2-difluoro-1,3-benzodioxol-5-yl)cyclopropyl]carbonyl}amino)-7-methoxy-3,4-dihydro-2H-chromen-2-yl]benzoic acid), read-out: EC50 (with co-corrector).
Setting [6] is: CSE-HRP, with co-corrector (2 μM).
The mark [7] stands for this setting: with co-corrector (2 μM of 3-[(2R,4R)-4-({[1-(2,2-difluoro-1,3-benzodioxol-5-yl)cyclopropyl]carbonyl}amino)-7-methoxy-3,4-dihydro-2H-chromen-2-yl]benzoic acid).

T1 sequence (P13569 with tags, fused parts or gaps DEL508-508): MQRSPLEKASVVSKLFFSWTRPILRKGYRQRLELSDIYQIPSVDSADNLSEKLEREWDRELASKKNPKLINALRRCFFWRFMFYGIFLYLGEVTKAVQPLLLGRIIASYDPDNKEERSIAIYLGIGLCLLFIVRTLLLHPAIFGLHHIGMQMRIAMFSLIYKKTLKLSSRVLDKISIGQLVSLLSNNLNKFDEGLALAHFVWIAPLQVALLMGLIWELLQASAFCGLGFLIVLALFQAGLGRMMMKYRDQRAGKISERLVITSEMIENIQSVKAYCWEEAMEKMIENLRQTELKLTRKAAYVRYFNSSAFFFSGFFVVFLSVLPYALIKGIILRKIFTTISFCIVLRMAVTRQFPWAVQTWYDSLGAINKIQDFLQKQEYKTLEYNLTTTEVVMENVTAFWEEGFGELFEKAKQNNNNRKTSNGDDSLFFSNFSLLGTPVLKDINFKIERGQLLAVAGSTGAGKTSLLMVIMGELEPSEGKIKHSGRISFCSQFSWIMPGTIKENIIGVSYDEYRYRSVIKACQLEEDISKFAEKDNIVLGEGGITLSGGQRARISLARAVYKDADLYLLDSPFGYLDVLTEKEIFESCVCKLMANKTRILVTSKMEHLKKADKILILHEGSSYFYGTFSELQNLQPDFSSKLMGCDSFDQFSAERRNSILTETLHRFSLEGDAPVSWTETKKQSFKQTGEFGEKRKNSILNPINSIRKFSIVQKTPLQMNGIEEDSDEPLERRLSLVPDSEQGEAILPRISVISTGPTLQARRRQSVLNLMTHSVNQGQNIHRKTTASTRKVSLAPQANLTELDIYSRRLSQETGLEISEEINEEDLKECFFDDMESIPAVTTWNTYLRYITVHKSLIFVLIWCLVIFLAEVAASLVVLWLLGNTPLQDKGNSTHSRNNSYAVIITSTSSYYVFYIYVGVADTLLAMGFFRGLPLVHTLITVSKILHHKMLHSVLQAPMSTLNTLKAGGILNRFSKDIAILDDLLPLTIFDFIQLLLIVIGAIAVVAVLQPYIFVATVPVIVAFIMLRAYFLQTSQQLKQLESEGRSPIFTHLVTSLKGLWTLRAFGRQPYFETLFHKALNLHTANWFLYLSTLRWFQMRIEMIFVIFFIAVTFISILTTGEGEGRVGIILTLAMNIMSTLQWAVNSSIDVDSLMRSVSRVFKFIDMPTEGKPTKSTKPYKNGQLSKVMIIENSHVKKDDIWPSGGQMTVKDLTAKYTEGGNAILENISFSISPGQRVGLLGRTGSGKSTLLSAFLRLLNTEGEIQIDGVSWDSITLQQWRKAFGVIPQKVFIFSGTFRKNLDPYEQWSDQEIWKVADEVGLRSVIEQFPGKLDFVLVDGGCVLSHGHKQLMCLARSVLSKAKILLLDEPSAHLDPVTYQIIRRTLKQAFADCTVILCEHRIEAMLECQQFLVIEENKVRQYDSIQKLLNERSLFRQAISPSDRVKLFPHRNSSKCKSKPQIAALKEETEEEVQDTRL

For `COc1ncc(C(F)(F)F)cc1CN[C@H]1[C@H](C2(C)CC2)[C@@H](C(=O)O)N(C(=O)C2CCCCC2)[C@H]1c1ccccc1` [III-189], the Emax under setting [1] is less than 100%. Further, the pEC50 (as a rule, the negative decadic logarithm of the EC50, by convention in mol/L) by setting is: under setting [2], 5.00 to 6.00; under setting [3], 5.00 to 6.00. Further, the “Maximum % activity (with co-corrector)” value (with co-corrector (2 μM)) is “++ (≥150 and <350)”.

On to `COc1cccc(Cl)c1CN[C@@H]1[C@@H](C(C)(C)C)[C@H](C(=O)O)N(C(=O)C2CCCCC2)[C@@H]1c1ccccc1` (racemic) [II-10], for which the pEC50 is, setting by setting: under setting [4], 5.00 to 6.00; under setting [5], 5.00 to 6.00. The “Maximum % activity (with co-corrector)” value under setting [6] was “+++ (≥350)”. For the same compound, where the note is “CSE-HRP, without co-corrector”, the Emax is 100 to 200%.

As for `COc1ccc(C(C)(C)C)cc1CN[C@H]1[C@H](C(C)(C)C)[C@@H](C(=O)O)N(C(=O)CC2CCCCO2)[C@H]1c1ccccc1` (stereo partly drawn) [Example 20, (2S,3S,4S,5S)-3-tert-butyl-4-{[(5-tert-butyl-2-methoxyphenyl)methyl]amino}-1-[(oxan-2-yl)acetyl]-5-phenylpyrrolidine-2-carboxylic acid], the pEC50 by setting is: under setting [2], 5.00 to 6.00; under setting [3], 5.00 to 6.00. The “Maximum % activity (with co-corrector)” value (with co-corrector (2 μM)) was “+++ (≥350)”. Besides, the Emax (without co-corrector) is 100 to 200%.

With `COc1cc(C(F)(F)F)ccc1CN[C@H]1[C@H](C(C)(C)C)[C@@H](C(=O)O)N(C(=O)[C@@H]2CCC[C@@H](OC)C2)[C@H]1c1ccccc1` [Example I-255], the pEC50 by setting is: under setting [4], 5.00 to 6.00; under setting [5], 5.00 to 6.00. Further, the “Maximum % activity (with co-corrector)” value under setting [6] is “+++ (≥350)”. Moreover, where the note is “CSE-HRP, without co-corrector”, the Emax was less than 100%.

`COc1ncc(C(F)(F)F)cc1CN[C@H]1[C@H](C(C)(C)C)[C@@H](C(=O)O)N(C(=O)[C@@H]2CCCO2)[C@H]1c1cccnc1N(C)C` [II-596]: under setting [1], the Emax was less than 100%. The pEC50 is 5.00 to 6.00 under setting [2] and 5.00 to 6.00 under setting [3]. For the same compound, the “Maximum % activity (with co-corrector)” value under setting [7] was “++ (≥150 and <350)”.

Consider `COc1ccc(C(F)(F)F)cc1CN[C@@H]1[C@@H](C(C)(C)C)[C@H](C(=O)O)N(C(=O)C2CCCOC2)[C@@H]1c1ccccc1N(C)C` (mixture of isomers) [II-21], for which the pEC50 is 5.00 to 6.00 under setting [4] and 5.00 to 6.00 under setting [5]. The “Maximum % activity (with co-corrector)” value under setting [6] was “+++ (≥350)”. Moreover, the Emax (CSE-HRP, without co-corrector) was more than 200%.

`COc1cccc(-c2cnc(OC)c(CN[C@H]3[C@H](C(C)(C)C)[C@@H](C(=O)O)N(C(=O)C4CCCCC4)[C@H]3c3ccccc3)c2)c1` [Example II-341, (2S,3S,4S,5S)-3-(tert-butyl)-1-(cyclohexanecarbonyl)-4-(((2-methoxy-5-(3-methoxyphenyl)pyridin-3-yl)methyl)amino)-5-phenylpyrrolidine-2-carboxylic acid]: under setting [1], the Emax is 100 to 200%. In addition, the pEC50 runs as follows: under setting [2], more than 6.00; under setting [3], more than 6.00. Besides, the “Maximum % activity (with co-corrector)” value under setting [7] was “+++ (≥350)”.

As for `COc1ccc(C(C)(C)C)cc1CN[C@@H]1[C@@H](C(C)(C)C)[C@H](C(=O)O)N(C(=O)OC2CCC2)[C@@H]1c1ccccc1` (racemic) [II-90], the pEC50 under setting [4] was 5.00 to 6.00 and the pEC50 under setting [5] is 5.00 to 6.00. Further, under setting [6], the “Maximum % activity (with co-corrector)” value was “+++ (≥350)”. Under “CSE-HRP, without co-corrector”, the Emax was more than 200%.

As to `COc1ccc(C(C)(C)C)cc1CN[C@H]1[C@H](C(C)(C)C)[C@@H](C(=O)O)N(C(=O)C2CC23CCOCC3)[C@H]1c1ccccc1` (stereo partly drawn) [II-442], the Emax under setting [1] was less than 100%. Also, the pEC50 runs as follows: under setting [2], 5.00 to 6.00; under setting [3], 5.00 to 6.00. In addition, the “Maximum % activity (with co-corrector)” value under setting [7] was “+++ (≥350)”.

Take `COc1ccc(C(C)(C)C)cc1CN[C@H]1[C@H](C(C)(C)C)[C@@H](C(=O)O)N(C(=O)Cc2c(F)cccc2F)[C@H]1c1ccccc1` [II-201]: the pEC50 runs as follows: under setting [4], more than 6.00; under setting [5], more than 6.00. Under setting [6], the “Maximum % activity (with co-corrector)” value was “+++ (≥350)”. For the same compound, the Emax (CSE-HRP, without co-corrector) was more than 200%.

For the compound `COc1ccc(C(C)(C)C)cc1CN[C@H]1[C@H](C(C)(C)C)[C@@H](C(=O)O)N(C(=O)C2CCCCC2)[C@H]1c1ccccc1O` [Example I-310], the pEC50 runs as follows: under setting [4], 5.00 to 6.00; under setting [5], more than 6.00. Moreover, the “Maximum % activity (with co-corrector)” value under setting [6] is recorded as “+++ (≥350)”. Moreover, the Emax (CSE-HRP, without co-corrector) was more than 200%.

For `COc1cc(C(F)(F)F)ccc1CN[C@H]1[C@H](C(C)(C)C)[C@@H](C(=O)O)N(C(=O)C2CCCCC2)[C@H]1c1ccccc1` [Example 8, (2S,3S,4S,5S)-3-tert-butyl-1-(cyclohexanecarbonyl)-4-({[2-methoxy-4-(trifluoromethyl)phenyl]methyl}amino)-5-phenylpyrrolidine-2-carboxylic acid], the negative-log EC50 (pEC50) is, setting by setting: under setting [2], 5.00 to 6.00; under setting [3], more than 6.00. Moreover, the “Maximum % activity (with co-corrector)” value (with co-corrector (2 μM)) was “+++ (≥350)”. For the same compound, the Emax (without co-corrector) lay within 100 to 200%.

In the case of `COc1cc(C(C)(C)C)ccc1CN[C@H]1[C@H](C(C)(C)OC)[C@@H](C(=O)O)N(C(=O)C2CCCCC2)[C@H]1c1ccccc1` [Example I-62], the pEC50 was 5.00 to 6.00 under setting [2] and 5.00 to 6.00 under setting [3]. The “Maximum % activity (with co-corrector)” value (with co-corrector (2 μM)) is listed as “+++ (≥350)”. Under “without co-corrector”, the Emax lay within 100 to 200%.

As for `CC(C)COc1ccccc1CN[C@@H]1[C@@H](C(C)(C)C)[C@H](C(=O)O)N(C(=O)C2CCCCC2)[C@@H]1c1ccccc1` (racemic) [II-5], the pEC50 reads like this: under setting [4], 5.00 to 6.00; under setting [5], 5.00 to 6.00. Moreover, the “Maximum % activity (with co-corrector)” value under setting [6] was “+++ (≥350)”. Also, where the note is “CSE-HRP, without co-corrector”, the Emax is less than 100%.

With `COc1cc(Cl)ccc1CN[C@H]1[C@H](C(C)(C)C)[C@@H](C(=O)O)N(C(=O)[C@H](OC)c2ccccc2)[C@H]1c1ccccc1` (relative stereo) [II-54], the pEC50 reads like this: under setting [4], 5.00 to 6.00; under setting [5], 5.00 to 6.00. For the same compound, the “Maximum % activity (with co-corrector)” value under setting [6] is on record as “+++ (≥350)”. The Emax (CSE-HRP, without co-corrector) is more than 200%.

Turning to `COc1ccc(Cl)cc1CN[C@@H]1[C@@H](C(C)(C)C)[C@H](C(=O)O)N(C(=O)C2CCOC(C)(C)C2)[C@@H]1c1ccccc1N(C)C` (mixture of isomers) [II-25], the pEC50 by setting is: under setting [4], 5.00 to 6.00; under setting [5], 5.00 to 6.00. Moreover, under setting [6], the “Maximum % activity (with co-corrector)” value is recorded as “+++ (≥350)”. Moreover, the Emax (CSE-HRP, without co-corrector) was more than 200%.

For the compound `COc1ccc(CN[C@H]2[C@H](C(C)(C)C)[C@@H](C(=O)O)N(C(=O)C3CCCCC3)[C@H]2c2ccccc2)c(C(F)(F)F)c1` [II-109], the pEC50 was more than 6.00 under setting [4] and 5.00 to 6.00 under setting [5]. Besides, the “Maximum % activity (with co-corrector)” value under setting [6] was “++ (≥150 and <350)”. In addition, the Emax (CSE-HRP, without co-corrector) was less than 100%.

For the compound `COc1ncc(C2CCC2)cc1CN[C@H]1[C@H](C(C)(C)C)[C@@H](C(=O)O)N(C(=O)C2CCCCC2)[C@H]1c1cccnc1N(C)C` [Example I-131], the pEC50 reads like this: under setting [2], 5.00 to 6.00; under setting [3], 5.00 to 6.00. Also, the “Maximum % activity (with co-corrector)” value (with co-corrector (2 μM)) is listed as “+++ (≥350)”. The Emax (without co-corrector) was more than 200%.

In the case of `COc1ccc(C(C)C)cc1CN[C@H]1[C@H](C(C)(C)OC)[C@@H](C(=O)O)N(C(=O)C2CCCCC2)[C@H]1c1ccccc1` [II-258], the pEC50 runs as follows: under setting [4], 5.00 to 6.00; under setting [5], more than 6.00. Also, under setting [6], the “Maximum % activity (with co-corrector)” value is “+++ (≥350)”. For the same compound, the Emax (CSE-HRP, without co-corrector) is more than 200%.

For `COc1ncc(C(F)(F)F)cc1CN[C@H]1[C@H](C(C)(C)C)[C@@H](C(=O)O)N(C(=O)C2CCCCC2)[C@H]1c1ccccc1OC(F)F` [Example 14, (2S,3S,4S,5S)-3-tert-butyl-1-(cyclohexanecarbonyl)-5-[2-(difluoromethoxy)phenyl]-4-({[2-methoxy-5-(trifluoromethyl)pyridin-3-yl]methyl}amino)pyrrolidine-2-carboxylic acid], the pEC50 is 5.00 to 6.00 under setting [2] and 5.00 to 6.00 under setting [3]. Further, the “Maximum % activity (with co-corrector)” value (with co-corrector (2 μM)) was “+++ (≥350)”. Besides, the Emax (without co-corrector) is less than 100%.

Turning to `CC(C)(C)[C@H]1[C@H](NCc2ccc(Cl)cc2Cl)[C@H](c2ccccc2)N(C(=O)C2CCCCC2)[C@@H]1C(=O)O` [II-113], the pEC50 reads like this: under setting [4], more than 6.00; under setting [5], 5.00 to 6.00. Also, the “Maximum % activity (with co-corrector)” value under setting [6] is “+++ (≥350)”. For the same compound, where the note is “CSE-HRP, without co-corrector”, the Emax is less than 100%.

Take `COc1cc2ccccc2cc1CN[C@H]1[C@H](C(C)(C)C)[C@@H](C(=O)O)N(C(=O)C2CCCCC2)[C@H]1c1ccccc1` [Example I-42]: the pEC50 reads like this: under setting [2], 5.00 to 6.00; under setting [3], more than 6.00. For the same compound, the “Maximum % activity (with co-corrector)” value (with co-corrector (2 μM)) is listed as “+++ (≥350)”. Also, the Emax (without co-corrector) is more than 200%.

Consider `COc1ncc(C2CCC2)cc1CN[C@H]1[C@H](C(C)(C)C)[C@@H](C(=O)O)N(C(=O)[C@@H]2CCC[C@@H](F)C2)[C@H]1c1ccccc1` [II-532], for which the Emax under setting [1] is more than 200%. The pEC50 under setting [2] was 5.00 to 6.00 and the pEC50 under setting [3] was more than 6.00. Besides, under setting [7], the “Maximum % activity (with co-corrector)” value was “+++ (≥350)”.

As for `COc1ncc(C(F)(F)F)cc1CN[C@H]1[C@H](C(C)(C)C)[C@@H](C(=O)O)N(C(=O)[C@@H]2CCCC(F)(F)C2)[C@H]1c1ccccc1` [Example 49, (2S,3S,4S,5S)-3-tert-butyl-1-[(1R)-3,3-difluorocyclohexane-1-carbonyl]-4-({[2-methoxy-5-(trifluoromethyl)pyridin-3-yl]methyl}amino)-5-phenylpyrrolidine-2-carboxylic acid], the pEC50 is, setting by setting: under setting [2], 5.00 to 6.00; under setting [3], more than 6.00. The “Maximum % activity (with co-corrector)” value (with co-corrector (2 μM)) was “+++ (≥350)”. Moreover, the Emax (without co-corrector) was more than 200%.
